Experimental data reported in US20240376121A1, “COMPOUNDS AND USES THEREOF” (Foghorn Therapeutics Inc., priority 2021, published 2024).

How the values were obtained:
[1] = target: T1, HiBit-BRG1 fusion protein (Homo sapiens, UniProt P51532); experiment: HiBiT-BRG1 cell-based degradation assay (Nano-Glo HiBiT Lytic Detection); conditions: stable HeLa cell line expressing HiBit-BRG1 and LgBit, 24 h incubation; for Dmax: top dose 30 μM, read-out: BRG1 HiBit Degradation Maximum (%); for DC50: read-out: BRMG1 HiBit Degradation IC50
T1 construct: expressed in transfected cells
How it was run: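 HeLa cells stably expressing HiBiT-BRG1 and LgBiT treated 24 h with 10-point 3-fold dilutions (top 30 μM, duplicate). Luminescence read after Nano-Glo HiBiT lytic reagent; % degradation relative to DMSO (high control) and 2 μM reference BRM/BRG1 degrader (low control).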

[2] = target: T2, HiBit-BRM fusion protein (Homo sapiens, UniProt P51531); experiment: HiBiT-BRM cell-based degradation assay (Nano-Glo HiBiT Lytic Detection); conditions: stable HeLa cell line expressing HiBiT-BRM, 24 h incubation; for BRM HiBit Degradation Maximum (%): top dose 30 μM; for DC50: read-out: BRM HiBit Degradation IC50
T2 construct: expressed in transfected cells
How it was run: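 HeLa cells stably expressing HiBiT-BRM were treated for 24 h with compounds (10-point 3-fold dilutions, 30 μM final top dose, in duplicate). HiBiT was detected by lytic LgBiT complementation luminescence. % degradation was normalized to DMSO (high control) and 2 μM of a reference BRM/BRG1 degrader (low control).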

T1 sequence (P51532 whole entry, the tested form may be a part): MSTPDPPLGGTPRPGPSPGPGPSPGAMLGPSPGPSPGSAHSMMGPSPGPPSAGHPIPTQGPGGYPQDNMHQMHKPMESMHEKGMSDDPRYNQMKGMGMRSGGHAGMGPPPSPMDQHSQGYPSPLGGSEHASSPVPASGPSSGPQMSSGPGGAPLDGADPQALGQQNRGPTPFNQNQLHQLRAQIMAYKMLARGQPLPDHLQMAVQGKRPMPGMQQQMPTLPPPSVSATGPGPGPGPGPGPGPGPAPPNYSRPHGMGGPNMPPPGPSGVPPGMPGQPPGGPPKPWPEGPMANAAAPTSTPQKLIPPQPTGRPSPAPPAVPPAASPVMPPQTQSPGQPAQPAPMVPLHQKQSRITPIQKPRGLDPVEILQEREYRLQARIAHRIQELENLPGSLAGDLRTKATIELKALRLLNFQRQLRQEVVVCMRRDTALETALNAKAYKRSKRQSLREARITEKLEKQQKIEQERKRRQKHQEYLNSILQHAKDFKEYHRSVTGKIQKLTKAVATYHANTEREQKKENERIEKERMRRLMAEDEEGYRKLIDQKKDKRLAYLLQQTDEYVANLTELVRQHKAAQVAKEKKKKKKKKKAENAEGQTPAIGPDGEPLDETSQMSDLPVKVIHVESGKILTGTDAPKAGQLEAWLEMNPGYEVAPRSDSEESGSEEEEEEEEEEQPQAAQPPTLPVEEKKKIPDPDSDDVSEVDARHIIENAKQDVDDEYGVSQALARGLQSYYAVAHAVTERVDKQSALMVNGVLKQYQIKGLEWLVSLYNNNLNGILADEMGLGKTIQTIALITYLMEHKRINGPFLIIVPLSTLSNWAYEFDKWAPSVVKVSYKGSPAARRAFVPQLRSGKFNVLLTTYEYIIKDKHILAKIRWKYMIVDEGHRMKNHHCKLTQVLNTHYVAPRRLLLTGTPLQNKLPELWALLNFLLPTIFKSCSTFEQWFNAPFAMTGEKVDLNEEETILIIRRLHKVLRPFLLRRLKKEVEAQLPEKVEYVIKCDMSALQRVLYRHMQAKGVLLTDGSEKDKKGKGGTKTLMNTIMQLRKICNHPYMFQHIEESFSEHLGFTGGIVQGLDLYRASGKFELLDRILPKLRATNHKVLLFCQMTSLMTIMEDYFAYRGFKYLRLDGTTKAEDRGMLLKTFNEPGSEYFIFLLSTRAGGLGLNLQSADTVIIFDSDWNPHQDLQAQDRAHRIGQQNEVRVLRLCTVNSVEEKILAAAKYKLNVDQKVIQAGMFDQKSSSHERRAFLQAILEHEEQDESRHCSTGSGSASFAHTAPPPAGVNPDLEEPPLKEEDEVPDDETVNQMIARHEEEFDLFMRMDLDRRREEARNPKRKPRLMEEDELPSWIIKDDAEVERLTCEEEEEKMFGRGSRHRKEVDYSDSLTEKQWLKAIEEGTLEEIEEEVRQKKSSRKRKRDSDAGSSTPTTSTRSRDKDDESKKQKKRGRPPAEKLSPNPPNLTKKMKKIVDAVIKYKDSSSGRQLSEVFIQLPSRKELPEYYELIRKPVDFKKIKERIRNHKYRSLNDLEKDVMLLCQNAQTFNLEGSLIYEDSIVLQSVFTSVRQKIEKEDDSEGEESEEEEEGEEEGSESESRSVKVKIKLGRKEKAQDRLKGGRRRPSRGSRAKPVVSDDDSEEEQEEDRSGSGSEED
T2 sequence (P51531 whole entry, the tested form may be a part): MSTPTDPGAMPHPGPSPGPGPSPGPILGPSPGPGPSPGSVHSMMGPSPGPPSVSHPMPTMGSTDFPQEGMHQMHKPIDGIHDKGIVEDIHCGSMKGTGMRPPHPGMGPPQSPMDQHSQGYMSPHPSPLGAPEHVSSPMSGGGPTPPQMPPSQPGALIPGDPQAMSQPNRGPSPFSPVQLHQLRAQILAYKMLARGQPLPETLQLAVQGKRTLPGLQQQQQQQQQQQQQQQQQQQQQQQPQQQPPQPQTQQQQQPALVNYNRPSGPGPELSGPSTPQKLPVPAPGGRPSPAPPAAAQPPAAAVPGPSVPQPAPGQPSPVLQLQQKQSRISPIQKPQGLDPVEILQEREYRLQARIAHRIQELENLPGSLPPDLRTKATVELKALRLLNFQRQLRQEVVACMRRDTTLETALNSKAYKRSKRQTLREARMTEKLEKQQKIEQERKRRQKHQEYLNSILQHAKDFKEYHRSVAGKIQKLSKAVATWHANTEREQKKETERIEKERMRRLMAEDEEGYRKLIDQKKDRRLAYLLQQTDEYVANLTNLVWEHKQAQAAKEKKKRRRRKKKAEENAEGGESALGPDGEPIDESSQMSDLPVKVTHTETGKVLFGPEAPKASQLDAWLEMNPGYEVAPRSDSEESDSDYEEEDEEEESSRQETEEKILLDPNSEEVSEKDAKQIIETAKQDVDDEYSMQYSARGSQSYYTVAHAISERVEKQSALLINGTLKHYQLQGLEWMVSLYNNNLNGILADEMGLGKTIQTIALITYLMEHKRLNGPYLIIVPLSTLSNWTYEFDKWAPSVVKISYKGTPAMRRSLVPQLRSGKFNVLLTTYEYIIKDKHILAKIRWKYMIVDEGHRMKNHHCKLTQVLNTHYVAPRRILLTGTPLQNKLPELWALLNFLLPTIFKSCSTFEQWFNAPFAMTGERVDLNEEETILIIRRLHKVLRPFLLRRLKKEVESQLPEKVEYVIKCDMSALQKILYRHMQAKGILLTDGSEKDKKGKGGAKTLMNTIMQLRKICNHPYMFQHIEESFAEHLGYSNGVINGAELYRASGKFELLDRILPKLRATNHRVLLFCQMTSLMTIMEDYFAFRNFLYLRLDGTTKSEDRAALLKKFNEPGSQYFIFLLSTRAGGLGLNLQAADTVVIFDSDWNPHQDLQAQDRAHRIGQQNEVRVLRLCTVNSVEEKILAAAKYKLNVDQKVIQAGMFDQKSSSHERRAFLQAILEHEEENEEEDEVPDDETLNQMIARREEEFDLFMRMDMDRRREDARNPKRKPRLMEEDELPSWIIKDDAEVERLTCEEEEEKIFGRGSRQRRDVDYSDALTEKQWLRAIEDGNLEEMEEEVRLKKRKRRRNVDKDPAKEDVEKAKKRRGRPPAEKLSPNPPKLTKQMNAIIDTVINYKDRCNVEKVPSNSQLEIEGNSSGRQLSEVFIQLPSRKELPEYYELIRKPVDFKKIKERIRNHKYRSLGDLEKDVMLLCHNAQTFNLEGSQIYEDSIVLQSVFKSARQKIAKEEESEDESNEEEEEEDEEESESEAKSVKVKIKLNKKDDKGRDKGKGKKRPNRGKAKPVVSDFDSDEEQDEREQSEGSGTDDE

Dmax [1] [%] | DC50 [1] [nM] | DC50 [2] [nM] | SMILES | BRM HiBit Degradation Maximum (%) [2]
≥ 75 | ≥ 1000 | ≥ 100 | Cc1ncsc1-c1ccc(CNC(=O)[C@@H]2C[C@@H](O)CN2C(=O)[C@@H](NC(=O)CCN2CCC(c3cc4nnc(-c5ccccc5O)cc4s3)CC2)C(C)(C)C)cc1 [Compound 78, (2S,4R)-4-hydroxy-1-((S)-2-(3-(4-(3-(2-hydroxyphenyl)thieno[3,2-c]pyridazin-6-yl)piperidin-1-yl)propanamido)-3,3-dimethylbutanoyl)-N-(4-(4-methylthiazol-5-yl)benzyl)pyrrolidine-2-carboxamide] | B (“B” indicates maximum degradation ≥ 50%)
< 50 | ≥ 1000 | ≥ 100 | Cc1ncsc1-c1ccc(CNC(=O)[C@@H]2C[C@@H](O)CN2C(=O)[C@@H](NC(=O)CCC(=O)N2CCC(c3cc4nnc(-c5ccccc5O)cc4s3)CC2)C(C)(C)C)cc1 [Compound 79, (2S,4R)-4-hydroxy-1-((S)-2-(4-(4-(3-(2-hydroxyphenyl)thieno[3,2-c]pyridazin-6-yl)piperidin-1-yl)-4-oxobutanamido)-3,3-dimethylbutanoyl)-N-(4-(4-methylthiazol-5-yl)benzyl)pyrrolidine-2-carboxamide] | C (“C” indicates maximum degradation < 50%)
< 50 | ≥ 1000 | ≥ 100 | Cc1ncsc1-c1ccc(CNC(=O)[C@@H]2C[C@@H](O)CN2C(=O)[C@@H](NC(=O)CCCC(=O)N2CCC(c3cc4nnc(-c5ccccc5O)cc4s3)CC2)C(C)(C)C)cc1 [Compound 80, (2S,4R)-4-hydroxy-1-((S)-2-(5-(4-(3-(2-hydroxyphenyl)thieno[3,2-c]pyridazin-6-yl)piperidin-1-yl)-5-oxopentanamido)-3,3-dimethylbutanoyl)-N-(4-(4-methylthiazol-5-yl)benzyl)pyrrolidine-2-carboxamide] | B (“B” indicates maximum degradation ≥ 50%)
< 50 | ≥ 10 | ≥ 10 | Cc1ncsc1-c1ccc(CNC(=O)[C@@H]2C[C@@H](O)CN2C(=O)[C@@H](NC(=O)C2(F)CC2)C(C)(C)C)c(OCCCN2CCC(c3sc4nnc(-c5ccccc5O)cc4c3C)CC2)c1 [Compound 81, (2S,4R)-1-((S)-2-(1-fluorocyclopropane-1-carboxamido)-3,3-dimethylbutanoyl)-4-hydroxy-N-(2-(3-(4-(3-(2-hydroxyphenyl)-5-methylthieno[2,3-c]pyridazin-6-yl)piperidin-1-yl)propoxy)-4-(4-methylthiazol-5-yl)benzyl)pyrrolidine-2-carboxamide] | B (“B” indicates maximum degradation ≥ 50%)
< 50 | ≥ 1000 | ≥ 1000 | Cc1ncsc1-c1ccc(CNC(=O)[C@@H]2C[C@@H](O)CN2C(=O)[C@@H](NC(=O)C2(F)CC2)C(C)(C)C)c(OCC(=O)N2CCC(c3sc4nnc(-c5ccccc5O)cc4c3C)CC2)c1 [Compound 82, (2S,4R)-1-((S)-2-(1-fluorocyclopropane-1-carboxamido)-3,3-dimethylbutanoyl)-4-hydroxy-N-(2-(2-(4-(3-(2-hydroxyphenyl)-5-methylthieno[2,3-c]pyridazin-6-yl)piperidin-1-yl)-2-oxoethoxy)-4-(4-methylthiazol-5-yl)benzyl)pyrrolidine-2-carboxamide] | C (“C” indicates maximum degradation < 50%)
< 50 | ≥ 1000 | ≥ 1000 | Cc1ncsc1-c1ccc(CNC(=O)[C@@H]2C[C@@H](O)CN2C(=O)[C@@H](NC(=O)C2(F)CC2)C(C)(C)C)c(OCCN2CCC(c3sc4nnc(-c5ccccc5O)cc4c3C)CC2)c1 [Compound 83, (2S,4R)-1-((S)-2-(1-fluorocyclopropane-1-carboxamido)-3,3-dimethylbutanoyl)-4-hydroxy-N-(2-(2-(4-(3-(2-hydroxyphenyl)-5-methylthieno[2,3-c]pyridazin-6-yl)piperidin-1-yl)ethoxy)-4-(4-methylthiazol-5-yl)benzyl)pyrrolidine-2-carboxamide] | C (“C” indicates maximum degradation < 50%)
< 50 | ≥ 1000 | ≥ 100 | Cc1ncsc1-c1ccc(CNC(=O)[C@@H]2C[C@@H](O)CN2C(=O)[C@@H](NC(=O)CCCCC(=O)N2CCC(c3cc4nnc(-c5ccccc5O)cc4s3)CC2)C(C)(C)C)cc1 [Compound 84, (2S,4R)-4-hydroxy-1-((S)-2-(6-(4-(3-(2-hydroxyphenyl)thieno[3,2-c]pyridazin-6-yl)piperidin-1-yl)-6-oxohexanamido)-3,3-dimethylbutanoyl)-N-(4-(4-methylthiazol-5-yl)benzyl)pyrrolidine-2-carboxamide] | C (“C” indicates maximum degradation < 50%)
≥ 75 | ≥ 100 | ≥ 10 | Cc1ncsc1-c1ccc(CNC(=O)[C@@H]2C[C@@H](O)CN2C(=O)[C@@H](NC(=O)[C@H]2CC[C@H](c3cnc(N4CCC(c5sc6nnc(-c7ccccc7O)cc6c5C)CC4)nc3)CC2)C(C)(C)C)cc1 [Compound 85, (2S,4R)-4-hydroxy-1-((S)-2-((1r,4S)-4-(2-(4-(3-(2-hydroxyphenyl)-5-methylthieno[2,3-c]pyridazin-6-yl)piperidin-1-yl)pyrimidin-5-yl)cyclohexane-1-carboxamido)-3,3-dimethylbutanoyl)-N-(4-(4-methylthiazol-5-yl)benzyl)pyrrolidine-2-carboxamide] | A (“A” indicates maximum degradation ≥ 75%)
< 50 | ≥ 1000 | ≥ 1000 | Cc1ncsc1-c1ccc(CNC(=O)[C@@H]2C[C@@H](O)CN2C(=O)[C@@H](NC(=O)[C@H]2CC[C@@H](c3cnc(N4CCC(c5sc6nnc(-c7ccccc7O)cc6c5C)CC4)nc3)CC2)C(C)(C)C)cc1 [Compound 86, (2S,4R)-4-hydroxy-1-((S)-2-((1s,4R)-4-(2-(4-(3-(2-hydroxyphenyl)-5-methylthieno[2,3-c]pyridazin-6-yl)piperidin-1-yl)pyrimidin-5-yl)cyclohexane-1-carboxamido)-3,3-dimethylbutanoyl)-N-(4-(4-methylthiazol-5-yl)benzyl)pyrrolidine-2-carboxamide] | C (“C” indicates maximum degradation < 50%)
< 50 | ≥ 1000 | < 10 | Cc1ncsc1-c1ccc([C@H](C)NC(=O)[C@@H]2C[C@@H](O)CN2C(=O)[C@@H](c2cc(N3CCC(N4CCC(c5cc6nnc(-c7ccccc7O)cc6s5)CC4)CC3)no2)C(C)C)cc1 [Compound 87, (2S,4R)-4-hydroxy-1-((R)-2-(3-(4-(3-(2-hydroxyphenyl)thieno[3,2-c]pyridazin-6-yl)-[1,4′-bipiperidin]-1′-yl)isoxazol-5-yl)-3-methylbutanoyl)-N-((S)-1-(4-(4-methylthiazol-5-yl)phenyl)ethyl)pyrrolidine-2-carboxamide] | A (“A” indicates maximum degradation ≥ 75%)
< 50 | ≥ 1000 | ≥ 10 | Cc1ncsc1-c1ccc([C@H](C)NC(=O)[C@@H]2C[C@@H](O)CN2C(=O)[C@@H](c2cc(OCCN3CC4(CC(c5sc6nnc(-c7ccccc7O)cc6c5C)C4)C3)no2)C(C)C)cc1 [Compound 88, (2S,4R)-4-hydroxy-1-((R)-2-(3-(2-(6-(3-(2-hydroxyphenyl)-5-methylthieno[2,3-c]pyridazin-6-yl)-2-azaspiro[3.3]heptan-2-yl)ethoxy)isoxazol-5-yl)-3-methylbutanoyl)-N-((S)-1-(4-(4-methylthiazol-5-yl)phenyl)ethyl)pyrrolidine-2-carboxamide] | A (“A” indicates maximum degradation ≥ 75%)
< 50 | ≥ 1000 | ≥ 1000 | Cc1ncsc1-c1ccc([C@H](C)NC(=O)[C@@H]2C[C@@H](O)CN2C(=O)[C@@H](c2cc(OCCN3CCC(c4c(C)sc5nnc(-c6ccccc6O)cc45)CC3)no2)C(C)C)cc1 [Compound 89, (2S,4R)-4-hydroxy-1-((R)-2-(3-(2-(4-(3-(2-hydroxyphenyl)-6-methylthieno[2,3-c]pyridazin-5-yl)piperidin-1-yl)ethoxy)isoxazol-5-yl)-3-methylbutanoyl)-N-((S)-1-(4-(4-methylthiazol-5-yl)phenyl)ethyl)pyrrolidine-2-carboxamide] | C (“C” indicates maximum degradation < 50%)
< 50 | ≥ 1000 | ≥ 10 | Cc1ncsc1-c1ccc([C@H](C)NC(=O)[C@@H]2C[C@@H](O)CN2C(=O)[C@@H](c2cc(OCCN3CCC(c4sc5nnc(-c6ccccc6O)cc5c4Cl)CC3)no2)C(C)C)cc1 [Compound 90, (2S,4R)-1-((R)-2-(3-(2-(4-(5-chloro-3-(2-hydroxyphenyl)thieno[2,3-c]pyridazin-6-yl)piperidin-1-yl)ethoxy)isoxazol-5-yl)-3-methylbutanoyl)-4-hydroxy-N-((S)-1-(4-(4-methylthiazol-5-yl)phenyl)ethyl)pyrrolidine-2-carboxamide] | A (“A” indicates maximum degradation ≥ 75%)
